# Source: patent US11981661B2, “Heterocyclic compounds” (Hoffmann-La Roche Inc., priority 2020, dated 2024)
# Molecular target: T1, MAGL (Homo sapiens, UniProt Q99685)
# T1 sequence (Q99685 1-303): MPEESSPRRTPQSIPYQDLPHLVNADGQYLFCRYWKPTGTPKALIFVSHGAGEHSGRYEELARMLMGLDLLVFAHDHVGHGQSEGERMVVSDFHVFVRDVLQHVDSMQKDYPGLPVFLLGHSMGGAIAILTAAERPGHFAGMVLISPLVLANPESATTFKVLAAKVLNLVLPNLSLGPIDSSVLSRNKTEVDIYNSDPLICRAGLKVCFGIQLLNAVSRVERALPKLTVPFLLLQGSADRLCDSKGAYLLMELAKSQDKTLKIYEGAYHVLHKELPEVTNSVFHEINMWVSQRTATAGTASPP
# Assay: 2-AG assay (MAGL inhibitory activity, hydrolysis of 2-arachidonoylglycerol followed by mass spectrometry)
# Format: biochemical
# Conditions: 50 pM MAGL, 8 μM 2-arachidonoylglycerol, 15 min preincubation, 30 min incubation at RT, concentration range 12.5 μM to 0.8 pM
# How it was run: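 50 pM MAGL preincubated 15 min at RT with compound (12.5 μM to 0.8 pM) in 50 mM TRIS, 1 mM EDTA, 0.01% Tween, then 8 μM 2-arachidonoylglycerol for 30 min at RT. Arachidonic acid measured by RapidFire SPE–triple quadrupole MS in negative mode, normalised to d8-arachidonic acid.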
row,SMILES,IC50 [nM]
1,"CN(c1ccccc1)c1ccc(C2CN(C(=O)CC[C@@H]3COC(=O)N3)C2)cc1 [Example 71, (4R)-4-[3-[3-[4-(N-Methylanilino)phenyl]azetidin-1-yl]-3-oxo-propyl]oxazolidin-2-one]",1
2,"CC(C)(C)c1ccc(C2CN(C(=O)CC[C@@H]3COC(=O)N3)C2)nc1 [Example 72, (4R)-4-[3-[3-(5-tert-Butyl-2-pyridyl)azetidin-1-yl]-3-oxo-propyl]oxazolidin-2-one]",7
3,"CS(=O)(=O)c1ccc(-c2ccc(C3CN(C(=O)CC[C@@H]4COC(=O)N4)C3)cc2)c(Cl)c1 [Example 73, (4R)-4-[3-[3-[4-(2-Chloro-4-methyl-sulfonyl-phenyl)phenyl]azetidin-1-yl]-3-oxo-propyl]oxazolidin-2-one]",1
4,"O=C1N[C@H](CCC(=O)N2CC(c3ccc(S(=O)(=O)c4ccccc4)cc3)C2)CO1 [Example 74, (4R)-4-[3-[3-[4-(Benzenesulfonyl)phenyl]azetidin-1-yl]-3-oxo-propyl]oxazolidin-2-one]",5
5,"N#CCS(=O)(=O)c1ccc(C2CN(C(=O)CC[C@@H]3COC(=O)N3)C2)cc1 [Example 75, 2-[4-[1-[3-[(4R)-2-Oxooxazolidin-4-yl]propanoyl]azetidin-3-yl]phenyl]sulfonyl-acetonitrile]",57
6,"O=C1N[C@H](CCC(=O)N2CC(c3ccc(S(=O)(=O)C(F)(F)F)cc3)C2)CO1 [Example 76, (4R)-4-[3-Oxo-3-[3-[4-(trifluoro-methylsulfonyl)phenyl]azetidin-1-yl]propyl]oxazolidin-2-one]",81
7,"O=C1N[C@H](CCC(=O)N2CC(c3ccc(S(=O)(=O)C4CCCCC4)cc3)C2)CO1 [Example 77, (4R)-4-[3-[3-(4-Cyclohexylsulfonyl-phenyl)azetidin-1-yl]-3-oxo-propyl] oxazolidin-2-one]",35
8,"N#CC1(c2ccc(C3CN(C(=O)CC[C@@H]4COC(=O)N4)C3)cn2)CCC1 [Example 78, 1-[5-[1-[3-[(4R)-2-Oxooxazolidin-4-yl]propanoyl]azetidin-3-yl]-2-pyridyl]cyclobutane-carbonitrile]",981
9,"Cc1ncccc1Oc1ccc(C2CN(C(=O)CC[C@@H]3COC(=O)N3)C2)cc1 [Example 79, (4R)-4-[3-[3-[4-[(2-Methyl-3-pyridyl)oxy]phenyl]azetidin-1-yl]-3-oxo-propyl]oxazolidin-2-one]",33
10,"O=C1N[C@H](CCC(=O)N2CC(c3ccc(Oc4nccc(C5CC5)n4)cc3)C2)CO1 [Example 80, (4R)-4-[3-[3-[4-(4-Cyclopropyl-pyrimidin-2-yl)oxyphenyl]azetidin-1-yl]-3-oxo-propyl] oxazolidin-2-one]",27
11,"CC(C)(C)Cn1nncc1-c1ccc(C2CN(C(=O)CC[C@@H]3COC(=O)N3)C2)cc1 [Example 81, (4R)-4-[3-[3-[4-[3-(2,2-Dimethyl-propyl)triazol-4-yl]phenyl]azetidin-1-yl]-3-oxo-propyl]oxazolidin-2-one]",7
12,"CS(=O)(=O)c1cc(Cl)ccc1-c1ccc(C2CN(C(=O)CC[C@@H]3COC(=O)N3)C2)cc1 [Example 82, (4R)-4-[3-[3-[4-(4-Chloro-2-methyl-sulfonyl-phenyl)phenyl]azetidin-1-yl]-3-oxo-propyl]oxazolidin-2-one]",0.5
13,"NC(=O)c1cc(Cl)ccc1Oc1ccc(C2CN(C(=O)CC[C@@H]3COC(=O)N3)C2)cn1 [Example 85, 5-Chloro-2-[[5-[1-[3-[(4R)-2-oxooxazolidin-4-yl]propanoyl]azetidin-3-yl]-2-pyridyl]oxy]benzamide]",123
14,"O=C1CSC[C@H](CCC(=O)N2CC(OCc3ccc(C(F)(F)F)cc3F)C2)N1 [Example 88, (5S)-5-[3-[3-[[2-Fluoro-4-(trifluoromethyl)phenyl]methoxy]azetidin-1-yl]-3-oxo-propyl]thiomorpholin-3-one]",1300
15,"O=C1N[C@H](CCC(=O)N2CC(c3ccc(N(CC4CC4)c4ccccc4)cc3)C2)CO1 [Example 89, (4R)-4-[3-[3-[4-[N-(Cyclopropylmethyl)anilino]phenyl]azetidin-1-yl]-3-oxo-propyl] oxazolidin-2-one]",0.02
16,"O=C1N[C@H](CCC(=O)N2CC(c3ccc(N(c4ccccc4)c4ccccc4)cc3)C2)CO1 [Example 90, (4R)-4-[3-Oxo-3-[3-[4-(N-phenylanilino)phenyl]azetidin-1-yl]propyl] oxazolidin-2-one]",0.02
17,"CC(C)(C)c1ccc(C2CN(C(=O)CC[C@@H]3COC(=O)N3)C2)cn1 [Example 91, (4R)-4-[3-[3-(6-tert-Butyl-3-pyridyl)azetidin-1-yl]-3-oxo-propyl]oxazolidin-2-one]",357
18,"COc1ccc(N(C)c2ccc(C3CN(C(=O)CC[C@@H]4COC(=O)N4)C3)cn2)nc1 [Example 92, (4R)-4-[3-[3-[6-[(5-Methoxy-2-pyridyl)-methyl-amino]-3-pyridyl]azetidin-1-yl]-3-oxo-propyl]oxazolidin-2-one]",293
19,"CN(c1ccccc1)c1ccc(C2CN(C(=O)CC[C@@H]3COC(=O)N3)C2)cn1 [Example 93, (4R)-4-[3-[3-[6-(N-Methyl-anilino)-3-pyridyl]azetidin-1-yl]-3-oxo-propyl]oxazolidin-2-one]",173
20,"CC(C)c1ccc(N(C)c2ccc(C3CN(C(=O)CC[C@@H]4COC(=O)N4)C3)cn2)cc1 [Example 94, (4R)-4-[3-[3-[6-(4-Isopropyl-N-methyl-anilino)-3-pyridyl]azetidin-1-yl]-3-oxo-propyl]oxazolidin-2-one]",10
21,"O=C1N[C@H](CCC(=O)N2CC(c3ccc(N(CC4CC4)c4ccccc4)nc3)C2)CO1 [Example 95, (4R)-4-[3-[3-[6-[N-(Cyclopropyl-methyl)anilino]-3-pyridyl]azetidin-1-yl]-3-oxo-propyl]oxazolidin-2-one]",0.35
22,"COCCN(c1ccc(C2CN(C(=O)CC[C@@H]3COC(=O)N3)C2)cc1)c1cccnc1 [Example 96, (4R)-4-[3-[3-[4-[2-Methoxyethyl(3-pyridyl)amino]phenyl]azetidin-1-yl]-3-oxo-propyl]oxazolidin-2-one]",2
23,"O=C1N[C@H](CCC(=O)N2CC3(C2)CN(S(=O)(=O)c2ccc(F)cc2C(F)(F)F)C3)CO1 [Example 97, (4R)-4-[3-[2-[4-Fluoro-2-(trifluoromethyl)phenyl]sulfonyl-2,6-diazaspiro[3.3]heptan-6-yl]-3-oxo-propyl] oxazolidin-2-one]",350
24,"CC(C)(C)CS(=O)(=O)N1CC2(CN(C(=O)CC[C@@H]3COC(=O)N3)C2)C1 [Example 98, (4R)-4-[3-[2-(2,2-Dimethylpropyl-sulfonyl)-2,6-diazaspiro[3.3]heptan-6-yl]-3-oxo-propyl]oxazolidin-2-one]",3370
25,"O=C1N[C@H](CCC(=O)N2CC(c3ccc(N4CC(OCC(F)(F)F)C4)cc3)C2)CO1 [Example 99, (4R)-4-[3-Oxo-3-[3-[4-[3-(2,2,2-trifluoro-ethoxy)azetidin-1-yl]phenyl]azetidin-1-yl]propyl] oxazolidin-2-one]",5
26,"O=C1N[C@H](CCC(=O)N2CC(c3ccc(N4CC(C(F)(F)F)C4)cc3)C2)CO1 [Example 100, (4R)-4-[3-Oxo-3-[3-[4-[3-(trifluoromethyl)azetidin-1-yl]phenyl]azetidin-1-yl]propyl]oxazolidin-2-one]",7
